The text below walks through data of PMC12844124, “Synthesis and Study of Substituted Chalcones Combined with Fluoroazobenzenes—New Photoswitches for Application in Biological Systems” (Molecules, 2026).

In data set [1] the test system is PC-3 cells. As to the kind of experiment: MTS cell proliferation assay, PC-3. Type of data set: cell-based, human. The procedure: Human BJ fibroblasts (American Type Cell Culture Collection, Manassas, VA, USA, CRL-2522) and human prostate cancer cell line PC-3 (American Type Cell Culture Collection, Manassas, VA, USA, CRL-1435), derived from bone metastases, were routinely grown in […]) Medium (ThermoFisher, Waltham, MA, USA, 21127-022) and supplemented with heat-inactivated 10% Fetal Bovine Serum (Biowest, France, […]) and 1% antibiotic solution (Biowest, Nuaillé, France, L0022), in a humidified 5% CO2 atmosphere at 37 °C. Cells were used between 3 and 20 passages. The 96-well plates were prepared by seeding 5 × 10^3 or 2.5 × 10^3 cells per well, for 24 and 48 h treatments, respectively, with at least five technical and two biological repeats. […] The cells were treated with either the Z conformer of 17j, with continuous illumination with 525 nm light, or the E conformer. The Z conformer was prepared by illuminating its DMSO solution with 525 nm light overnight. The cell proliferation was analyzed with CellTiter Aqueous One Solution Cell Proliferation MTS (3-(4,5-dimethylthiazol-2-yl)-5-(3-carboxymethoxyphenyl)-2-(4-sulfophenyl)-2H-tetrazolium) Assay (Promega, Madison, WI, USA, G5430) after 24 or 48 h of treatment. The absorbance was measured at 490 and 670 nm with FLUOStar Omega plate reader (BMG LABTECH GmbH, Ortenberg, Germany). The statistical analysis was performed within R 4.5.1 project. […] The log-logistic four parametric model (4PL), with the lower limit boundary set to 0 and group fitting, was used, as available in the drc package, to fit cell proliferation data. […] The assessment metrics for model goodness of fit were performed with functions available in the drc package and with custom ones. When appropriate, the delta method was applied to obtain error of central tendency. To assess the goodness of fit for each of the biological replicates, deviance R^2 (DR^2) was calculated and assessed. […] The DR^2 was calculated according to the following Equation: 1 - (Dres/Dnull), where Dres-residual deviance and Dnull-null deviance (deviance of the model with mean as a predicted value). The null hypothesis was assessed with the two-way ANOVA with Tukey's post hoc test for multiple comparisons or with the two-way t-test when only two groups were compared. The differences in the cell cycle percentages were assessed with the two-way ANOVA with Tukey's post hoc test.
A general note: Formazan colour is commonly taken as a measure of viable cells.

The subject of data set [2] is PC-3 cells. As to the kind of experiment: Cell cycle analysis by flow cytometry, PC-3. Type of data set: cell-based, human. To be noted: 24 h. As to the method:
The BJ or PC-3 cells were treated as described previously, with the exception that 0.15 × 10^6 cells per well were seeded in 6-well plates. After 24 h of treatment, cells were harvested by trypsinization (Biowest, Nuaillé, France, L0931), washed twice, resuspended in PBS, and added to cold 70% ethanol for overnight fixation at −20 °C. Subsequently, cells were centrifuged and resuspended in PBS containing 5 µg/mL of propidium iodide in PBS (Sigma-Aldrich, St. Louis, MO, USA, 4170), 0.1% Triton X-100, and 10 µg/mL of DNAse-free RNAse (A&A Biotechnology, Gdansk, Poland, 1006-10) in the dark for 4 h at 37 °C. FACS analysis was performed using a FACSCanto II flow cytometer and FACSDiva, version 9.0 software (BD Biosciences, San Jose, CA, USA). Flow rate was set to about 1000 events/cells per second. Signals from at least 10,000 events per sample were captured. The percentages of PC-3 cells in cell cycle phases (G0/G1, S, and G2/M) were determined using ModFit LT 4.1.7 (Verity Software House, Topsham, ME, USA).
A general note: Flow cytometry measures light scatter and fluorescence of single cells or particles in a stream.

Data set [3] is described as follows: Changes over time of Z to E transition by 19F NMR. Type of data set: physicochemical. To be noted: light 505 nm, 100 mM in DMSO. The source says: We can observe that for electromagnetic radiation in the range of wavelengths 390 nm to 610 nm, transitions from E to Z of about 0–76% are obtained. The best results for all compounds are in visible wavelengths 505 nm or 525 nm (30.59–75.44%). From analyzing Figure 2 we can draw the following conclusions: all synthesized compounds undergo switching under visible light (this is important because UV radiation can damage the DNA of cells, inhibiting replication and, as a result, preventing cell division). For the 2,6-difluoro substituents (17i), (17j), (17k), and (17l) with values of 74.84%, 73.2%, 74.39%, and 75.44%, respectively, the largest share of the Z configuration is at (525 nm) and, for the rest of (17a), (17b), (17c), (17e), (17f), and (17g), it is in range of 30.57–47.13% at 505 nm. […] Multiple cycles of photoreversible switching under alternating green and blue light irradiation, with no significant photobleaching or degradation, confirmed the repeatable and robust photochromic conversion of the synthesized azobenzenes (Figure 2b). Then we measured changes over time (transitions from Z to E, upon irradiation with 505 nm for (17a–17c) and (17e–17g), and 525 nm for (17i–17l) compounds (Figure 3, and see Section S4.3 in Supplementary Materials).

A short description of data set [4]: UV–VIS spectra of E/Z isomers in DMSO. Type of data set: physicochemical. To be noted: for Δ λmax n→π*: between E and Z isomers. The procedure: For this purpose, the UV–VIS spectra were measured for all synthesized hybrids (17a–17l) at concentrations from 20 to 500 µM in dimethyl sulfoxide (DMSO) in light at λ 505 nm and for (17a–17c), (17e–17g), and (17i–17l) at λ 525 nm, respectively, as detailed in Table 1 (see Section S4.4 in Supplementary Materials).

Take `COc1cc2c(c(OC)c1OC)-c1ccc(OC)c(=O)cc1[C@@H](NC(C)=O)CC2` [colchicine, reference compound]: the normalized asymptote is 63.8 ± 6.2% in the data set on PC-3 cells [1] (24 h treatment) and 51.3 ± 5.7% with PC-3 cells [1] (48 h treatment). The “percentage of cells in the G2/M phase” value in the data set on PC-3 cells [2] (20 nM) amounted to 15.7%; in the data set on PC-3 cells [2] (60 nM), 54.2%.
Consider `COc1cc(/C=C/C(=O)c2cccc(/N=N/c3ccc(F)cc3F)c2)cc(OC)c1` [Compound 17f], for which the “Z isomer, changes over time” value in data set [3] (0 h) is 47.13%; in data set [3] (1 h) it was 46.61%; in data set [3] (2 h), 45.77%; in data set [3] (3 h), 44.72%; in data set [3] (4 h), 44.28%; in data set [3] (5 h) it was 43.95%. Besides, the “Z isomer, changes over time” value in data set [3] (6 h) was determined as 43.3%; in data set [3] (7 h), 42.6%; in data set [3] (8 h) it was 41.87%. Further, the “Δ (Z to E change 0 h to 8 h)” value in data set [3] turned out to be 5.26%. In addition, the results for the “εmax (n→π*)” value in data set [4] (E isomer) and in data set [4] (Z isomer) were 872 dm^3·mol^−1·cm^−1 and 1150 dm^3·mol^−1·cm^−1, respectively. Further, in data set [4] (E isomer), the “λmax n→π* (E)” value amounted to 441.9 nm. Besides, the “λmax n→π* (Z)” value in data set [4] (Z isomer) is reported as 427.9 nm. In data set [4], the “Δ λmax n→π*” value is 14.0 nm.
For the compound `COc1cc(/C=C/C(=O)c2cccc(/N=N/c3ccc(F)cc3)c2)cc(OC)c1` [Compound 17b], the “Z isomer, changes over time” value was determined as 32.38% in data set [3] (0 h); 32.21% in data set [3] (1 h); 30.2% in data set [3] (2 h); 29.69% in data set [3] (3 h); 28.37% in data set [3] (4 h); 26.74% in data set [3] (5 h). Also, the results for the “Z isomer, changes over time” value in data set [3] (6 h), in data set [3] (7 h) and in data set [3] (8 h) were 25.21%, 24.74% and 24.03%, respectively. In addition, the “Δ (Z to E change 0 h to 8 h)” value in data set [3] came out at 8.35%. In addition, the “εmax (n→π*)” value in data set [4] (E isomer) turned out to be 688 dm^3·mol^−1·cm^−1; in data set [4] (Z isomer), 898 dm^3·mol^−1·cm^−1. Moreover, the “λmax n→π* (E)” value in data set [4] (E isomer) was determined as 442.1 nm. Also, in data set [4] (Z isomer), the “λmax n→π* (Z)” value was 434.0 nm. Further, the “Δ λmax n→π*” value in data set [4] was 8.1 nm.
As to `COc1ccc(/C=C/C(=O)c2cccc(/N=N/c3ccc(F)cc3F)c2)cc1OC` [Compound 17e], the “Z isomer, changes over time” value in data set [3] (0 h) is listed as 46.84%; in data set [3] (1 h), 45.35%; in data set [3] (2 h), 45.18%; in data set [3] (3 h), 44.16%; in data set [3] (4 h), 43.55%; in data set [3] (5 h), 43.39%. In addition, the results for the “Z isomer, changes over time” value in data set [3] (6 h), in data set [3] (7 h) and in data set [3] (8 h) were 43.01%, 42.31% and 42.17%, respectively. Besides, the “Δ (Z to E change 0 h to 8 h)” value in data set [3] came to 4.67%.
As for `COc1ccc(/C=C/C(=O)c2cccc(/N=N/c3ccc(F)cc3)c2)cc1OC` [Compound 17a], the “Z isomer, changes over time” value in data set [3] (0 h) is on record as 32.44%; in data set [3] (1 h), 31.33%; in data set [3] (2 h), 30.37%; in data set [3] (3 h), 29.4%; in data set [3] (4 h) it was 28.74%; in data set [3] (5 h), 27.66%. Also, the “Z isomer, changes over time” value is on record as 26.82% in data set [3] (6 h), 26.38% in data set [3] (7 h) and 26.02% in data set [3] (8 h). Further, in data set [3], the “Δ (Z to E change 0 h to 8 h)” value was 6.42%.
On to `COc1cc(/C=C/C(=O)c2cccc(/N=N/c3ccc(F)cc3F)c2)cc(OC)c1OC` [Compound 17g], for which the “Z isomer, changes over time” value was determined as 44.82% in data set [3] (0 h); 43.69% in data set [3] (1 h); 42.89% in data set [3] (2 h); 42.36% in data set [3] (3 h); 41.25% in data set [3] (4 h); 40.61% in data set [3] (5 h). The “Z isomer, changes over time” value in data set [3] (6 h) was 40.5%; in data set [3] (7 h), 39.88%; in data set [3] (8 h), 38.78%. In addition, the “Δ (Z to E change 0 h to 8 h)” value in data set [3] is reported as 6.04%.
With `COc1cc(/C=C/C(=O)c2cccc(/N=N/c3ccc(F)cc3)c2)cc(OC)c1OC` [Compound 17c], the “Z isomer, changes over time” value is 30.59% in data set [3] (0 h); 30.16% in data set [3] (1 h); 28.28% in data set [3] (2 h); 27.14% in data set [3] (3 h); 25.95% in data set [3] (4 h); 25.61% in data set [3] (5 h). For the same compound, the “Z isomer, changes over time” value in data set [3] (6 h) was found to be 25.18%; in data set [3] (7 h), 24.05%; in data set [3] (8 h), 23.17%. Moreover, the “Δ (Z to E change 0 h to 8 h)” value in data set [3] was determined as 7.42%.
